Test results published in patent US11459337B2, “Isothiazolo[5,4-D]pyrimidine compound as IRAK4 inhibitor” (priority 2018, dated 2022).
Read-outs that look alike come from different tables or passages of the source.

How the values were obtained:
THP-1 cells = assay: TNF-α ELISA assay in LPS-stimulated THP-1 cells; type: cell-based, human; settings: Homo sapiens, THP-1, 18 h, TNF-α in supernatant, 150 ng/mL LPS
Protocol: TNF-α ELISA Assay in THP-1 Cells THP-1 human acute unicellular leukemia cells were purchased from ATCC (Cat #TIB-202) and incubated in a 37° C., 5% CO2 incubator. The medium was RPMI1640 (Gibco, Cat #22400-105), the supplementary was 10% FBS (Gibco, Cat #10091148); 1% PenStrep (Gibco, Cat #15140); 0.05 mM 2-mercaptoethanol (Sigma, Cat #M6250). TNF-α content in the culture supernatant was measured by a TNF-α Elisa kit. TNF-α was produced by stimulation of THP-1 cells with 150 ng/mL LPS (Sigma, Cat #L6529). Normal THP-1 cells in logarithmic phase were inoculated in 96-well plates (Corning #3599) at a certain concentration (1×10^5/100 μL) and then incubated in an incubator. After two hours, 16.7 μL of test compound of different concentrations (8×final concentration) was added and the mixture was incubated. After one hour, 16.7 μL of 1200 ng/mL LPS was added and the mixture was incubated. After 18 hours, the culture was centrifuged and the supernatant was collected. The TNF-α content was measured by a TNF-α Elisa kit. Finally, the OD signals (OD450-OD570) were read on an envision plate reader. The OD450-OD570 signals were converted to percent inhibition. Inhibition %=(ZPE−sample)/(ZPE−HPE)×100. “HPE” represents the OD450-OD570 signal value of the control without LPS-stimulated cells, and “ZPE” represents the OD450-OD570 signal value of the control with LPS-stimulated cells. IC50 values for compounds were calculated by XLFit in the Excel. Y=Bottom+(Top−Bottom)/(1+(IC50/X)^HillSlope). Equation: […]

[1] = Pharmacokinetic study of oral and intravenous test compounds in SD rats; type: in vivo; settings: rat, plasma, SD male rats; for Vd: read-out: Apparent volume of distribution Vdss; for AUC(0-t): read-out: Area under plasma concentration-time curve AUC0-last; for clearance: read-out: Clearance CL; for half-life: read-out: Half life T1/2 (converted); for bioavailability: read-out: Bioavailability F; for Cmax: read-out: Peak concentration Cmax; for Tmax: read-out: Time to peak Tmax
Protocol: Pharmacokinetic Study of Oral and Intravenous Test Compounds in SD Rats The test compound was mixed with a solution containing 10% of methyl pyrrolidone, 10% of polyethylene glycol stearate and 80% of water. The mixture was vortexed and sonicated to prepare a 1.5 mg/mL clarified solution, which was then filtered through a microporous membrane for later use. SD male rats aged 7 to 10 weeks were selected and administered intravenously with a dose of the candidate compound at 3 mg/kg. The test compound was mixed with 0.5% aqueous methylcellulose solution. The mixture was vortexed and sonicated to prepare a 2 mg/mL suspension for later use. SD male rats aged 7 to 10 weeks were selected and orally administered with a dose of the candidate compound at 10 mg/kg. Whole blood was collected at certain time points, and plasma was separated. The drug concentration was measured by LC-MS/MS, and pharmacokinetic parameters were calculated using Phoenix WinNonlin software (Pharsight, USA).

human IRAK4 = human IRAK4 (Homo sapiens (Human), UniProt Q9NWZ3); assay: 33P-labeled kinase activity assay (Reaction Biology Corp), in vitro enzymatic activity; type: biochemical; settings: 20 μM ATP, 3 nM kinase, MBP substrate
Chain of human IRAK4 (Q9NWZ3 whole entry): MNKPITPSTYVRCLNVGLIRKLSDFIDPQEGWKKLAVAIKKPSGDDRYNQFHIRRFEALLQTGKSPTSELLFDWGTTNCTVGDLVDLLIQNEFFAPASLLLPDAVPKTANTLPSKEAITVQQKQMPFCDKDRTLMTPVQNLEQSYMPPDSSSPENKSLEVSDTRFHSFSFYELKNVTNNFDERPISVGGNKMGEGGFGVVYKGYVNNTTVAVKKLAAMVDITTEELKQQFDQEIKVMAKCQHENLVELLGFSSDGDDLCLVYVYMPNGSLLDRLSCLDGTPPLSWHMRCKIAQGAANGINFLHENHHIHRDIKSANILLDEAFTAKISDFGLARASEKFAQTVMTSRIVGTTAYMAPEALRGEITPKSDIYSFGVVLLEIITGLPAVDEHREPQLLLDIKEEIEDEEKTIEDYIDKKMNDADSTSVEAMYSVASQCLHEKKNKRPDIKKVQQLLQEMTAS
Protocol: The inhibitory activity of the test compounds against human IRAK4 was evaluated by measuring IC50 values in a ^33P-labeled kinase activity assay (Reaction Biology Corp). Buffer conditions: 20 mM Hepes (pH 7.5), 10 mM MgCl2, 1 mM EGTA, 0.02% Brij35, 0.02 mg/mL BSA, 0.1 mM Na3VO4, 2 mM DTT, 1% DMSO. Procedures: The test compound was dissolved in DMSO at room temperature to prepare a 10 mM solution for later use. The substrate was dissolved in fresh buffer, to which the kinase was added and mixed well. The DMSO solution containing the test compound was added to the above mixed reaction system by an acoustic technique (Echo 550). The concentrations of the compounds in reaction system were 10 μM, 3.33 μM, 1.11 μM, 0.370 μM, 0.123 μM, 41.2 nM, 13.7 nM, 4.57 nM, 1.52 nM, and 0.508 nM. After 15 minutes of incubation, the reaction was started by adding ^33P-ATP (activity: 0.01 μCi/μL; the corresponding concentration is listed in Table 1). Supplier's catalog number, lot number and concentration information in the reaction system for IRAK4 and its substrate are listed in Table 1. After 120 minutes of reaction at room temperature, the resulting solution was loaded on P81 ion exchange chromatography paper sheet (Whatman #3698-915). After repeated washing with 0.75% phosphoric acid solution, the radioactivity of the phosphorylated substrate residue on the paper sheet was measured. The kinase activity data are shown as a comparison of the kinase activity of the test compound and the kinase activity of the blank (DMSO only) and a curve was fitted using Prism4 software (GraphPad) to give IC50 values, with the experimental results shown in Table 2. [table]

[2] = In vitro metabolic stability in liver microsome, dog; type: in vitro ADME; settings: Dog liver microsomes, 1 μM compound, 0.5 mg/mL protein
Protocol: (§1) Metabolic Stability in Liver Microsome The test compounds at 1 μM were co-incubated with liver microsomes having a protein concentration of 0.5 mg/mL under the action of a reductive coenzyme II regeneration system in a 37° C. water bath. • 1) Positive controls included: testosterone (3A4 substrate), propylamine propiophenone (2D6 substrate), and diclofenac (2C9 substrate). The positive controls were incubated in the same condition as the test compounds. • 2) The reaction was stopped using a stop reagent containing the internal standard at time points of 0, 5, 10, 20, 30 and 60 minutes. […] CLint^mic: intrinsic microsomal clearance;

[3] = In vitro metabolic stability in liver microsome, rat; type: in vitro ADME; settings: Rat liver microsomes, 1 μM compound, 0.5 mg/mL protein
Protocol: as §1

[4] = In vitro metabolic stability in liver microsome, human; type: in vitro ADME; settings: Human liver microsomes, 1 μM compound, 0.5 mg/mL protein
Protocol: as §1

[5] = In vitro metabolic stability in liver microsome, mouse; type: in vitro ADME; settings: Mouse liver microsomes, 1 μM compound, 0.5 mg/mL protein
Protocol: as §1

[6] = In vitro metabolic stability in liver microsome, monkey; type: in vitro ADME; settings: Monkey liver microsomes, 1 μM compound, 0.5 mg/mL protein
Protocol: as §1

[7] = system: LPS-induced TNF-α secretion; assay: Pharmacodynamic study evaluating LPS-induced TNF-α secretion in SD rats; type: in vivo; settings: for inhibitory effect on LPS-induced TNF-α secretion: LPS 1 mg/kg i.p.; for efficacy compared with dexamethasone DEX: DEX 0.5 mg/kg
Protocol: Pharmacodynamic Study Evaluating […] (LPS)-Induced TNF-α Secretion in SD Rats SD rats were orally administered with a solvent, dexamethasone (DEX, 0.5 mg/kg) as positive control, and the test compound, and were intraperitoneally injected with LPS (1 mg/kg) 0.5 hours after the administration Animals were euthanized with CO2 2 hours after LPS injection. Cardiac blood was collected into EDTA-K2 vacutainers, and a part of the anticoagulated blood was centrifuged and the plasma was frozen at −80° C. Frozen plasma was thawed at room temperature and the concentration of TNF-α in the plasma was measured using ELISA kit. The experimental data were expressed using mean±SEM, and TNF-α levels were analyzed by One-way ANOVA. Significant differences were considered for p<0.05.

| Structure (SMILES) | IC50 (THP-1 cells) [nM] | Vd ([1]; Intravenous, 3 mg/kg) [L/kg] | AUC(0-t) ([1]; Intravenous, 3 mg/kg) [µM·h] | clearance ([1]; Intravenous, 3 mg/kg) [mL/min/kg] | half-life ([1]; Intravenous, 3 mg/kg) [min] | AUC(0-t) ([1]; Oral, 10 mg/kg) [µM·h] | bioavailability ([1]; Oral, 10 mg/kg) [%] | Cmax ([1]; Oral, 10 mg/kg) [nM] | Tmax ([1]; Oral, 10 mg/kg) [h] | IC50 (human IRAK4) [nM] | Re1 h % (residue of test compound at 1 hour) [2] [%] | Re1 h % (residue of test compound at 1 hour) [3] [%] | Re1 h % (residue of test compound at 1 hour) [4] [%] | Re1 h % (residue of test compound at 1 hour) [5] [%] | Re1 h % (residue of test compound at 1 hour) [6] [%] | inhibitory effect on LPS-induced TNF-α secretion ([7]; FIG. 2, oral, 20 mpk) | efficacy compared with dexamethasone DEX ([7]; FIG. 1, oral, 30 mpk) | inhibitory effect on LPS-induced TNF-α secretion ([7]; FIG. 1, oral, 30 mpk) | inhibitory effect compared with reference compounds WXR2, WXR3 and WXR4 ([7]; FIG. 1, oral, same doses (30 mpk)) | efficacy compared with dexamethasone DEX ([7]; FIG. 2, oral, 20 mpk) |
| --- | --- | --- | --- | --- | --- | --- | --- | --- | --- | --- | --- | --- | --- | --- | --- | --- | --- | --- | --- | --- |
| c1cc2c(N[C@H]3CC[C@H](N4CCOCC4)CC3)nc(Nc3cnn(C4CCOCC4)c3)nc2s1 [WXR1, reference compound] |  |  |  |  |  |  |  |  |  |  | 5.5 | 32.3 | 23.7 | 0.0 | 0.6 |  |  |  |  |  |
| COC(=O)N1C2CC1CN([C@H]1CC[C@H](Nc3nc(Nc4cnn(C5CCOCC5)c4)nc4snc(C)c34)CC1)C2 [WX044] |  |  |  |  |  |  |  |  |  | 40.7 |  |  |  |  |  | significant inhibitory effect |  |  |  |  |
| CC(C)c1nsc2nc(Nc3cnn(C4CCOCC4)c3)nc(N[C@H]3CC[C@H](N4CCOCC4)CC3)c12 [WX003] | 329 | 4.8 | 1.33 | 71.4 | 60 | 2.01 | 48 | 523 | 0.8 | 2.9 |  |  |  |  |  |  |  |  |  |  |
| Cc1nsc2nc(Nc3cnn(C4CCOCC4)c3)nc(N[C@H]3CC[C@H](N4CCOCC4)CC3)c12 [WX001] | 177 | 4.6 | 1.75 | 57 | 84 | 2.05 | 35 | 397 | 2.3 | 6.8 | 60.5 | 76.6 | 50.0 | 39.1 | 3.2 | significant inhibitory effect | equivalent | significant inhibitory effect | significantly superior |  |
| COC(=O)N1CCN([C@H]2CC[C@H](Nc3nc(Nc4cnn(C5CCOCC5)c4)nc4snc(C)c34)CC2)CC1 [WX026] | 156 | 4.5 | 1.77 | 50.6 | 132 | 1.36 | 23 | 308 | 1.5 | 2 |  |  |  |  |  | significant inhibitory effect |  |  |  | equivalent |

Now from value to compound, other results behind:

| IC50 (THP-1 cells) [nM] | Vd ([1]; Intravenous, 3 mg/kg) [L/kg] | AUC(0-t) ([1]; Intravenous, 3 mg/kg) [µM·h] | clearance ([1]; Intravenous, 3 mg/kg) [mL/min/kg] | half-life ([1]; Intravenous, 3 mg/kg) [min] | AUC(0-t) ([1]; Oral, 10 mg/kg) [µM·h] | bioavailability ([1]; Oral, 10 mg/kg) [%] | Cmax ([1]; Oral, 10 mg/kg) [nM] | Tmax ([1]; Oral, 10 mg/kg) [h] | IC50 (human IRAK4) [nM] | Re1 h % (residue of test compound at 1 hour) [2] [%] | Re1 h % (residue of test compound at 1 hour) [3] [%] | Re1 h % (residue of test compound at 1 hour) [4] [%] | Re1 h % (residue of test compound at 1 hour) [5] [%] | Re1 h % (residue of test compound at 1 hour) [6] [%] | Structure (SMILES) | inhibitory effect on LPS-induced TNF-α secretion ([7]; FIG. 2, oral, 20 mpk) | efficacy compared with dexamethasone DEX ([7]; FIG. 1, oral, 30 mpk) | inhibitory effect on LPS-induced TNF-α secretion ([7]; FIG. 1, oral, 30 mpk) | inhibitory effect compared with reference compounds WXR2, WXR3 and WXR4 ([7]; FIG. 1, oral, same doses (30 mpk)) | efficacy compared with dexamethasone DEX ([7]; FIG. 2, oral, 20 mpk) |
| --- | --- | --- | --- | --- | --- | --- | --- | --- | --- | --- | --- | --- | --- | --- | --- | --- | --- | --- | --- | --- |
| 649 | 5.7 | 1.46 | 73.3 | 108 | 2.69 | 58 | 540 | 2.5 | 21.3 |  |  |  |  |  | Cc1nsc2nc(Nc3cnn(C4COC4)c3)nc(N[C@H]3CC[C@H](N4CCOCC4)CC3)c12 [WX009] |  |  |  |  |  |
| 417 | 3.3 | 1.33 | 79 | 54 | 1.64 | 38 | 389 | 2 | 5.7 |  |  |  |  |  | Cc1nsc2nc(Nc3cnn(C4CCOC4)c3)nc(N[C@H]3CC[C@H](N4CCOCC4)CC3)c12 (some centres unmarked) [WX007] |  |  |  |  |  |
